In patent US20210060013A1, “Method for Preventing Triple Negative Breast Cancer in Predisposed Subjects” (Southern University of Science and Technology, priority 2019, published 2021):

Key:
[1] = test system: MMTV-PyMT mice; experiment: MMTV-PyMT mouse model of breast cancer, preventive crenolanib treatment; format: in vivo; conditions: for tumor growth (tumor volumes by calipers) vs vehicle-treated mice: measured every 5 d, beginning at day 10, FIGS. 1A, 1B
Procedure: FIGS. 1A to 1C show the ability of the present invention to prevent the development of mammary tumors in a subject genetically predisposed and at high risk of developing breast cancer. MMTV-PyMT mice were administered crenolanib starting at 8 weeks of age, before the development of palpable mammary tumors. FIG. 1A: Mice were treated with 20 mg/kg crenolanib, dissolved in vehicle, intraperitoneally once daily for 35 days. FIG. 1B: Tumor sizes were measured using digital calipers every 5 days during treatment and volumes were calculated using a standard formula ((length×width)/2)). Control mice were treated with vehicle alone. FIG. 1C: At the end of crenolanib treatment, mice were sacrificed, and final tumor weight was determined.
In the MMTV-PyMT mouse model of breast cancer, the Polyoma Virus middle T antigen is expressed under the control of the mouse mammary tumor virus promoter, which results in spontaneous formation of mammary tumors in female mice. This model effectively recapitulates all of the stages of human disease, and mice develop tumors begin developing palpable mammary tumors at approximately 13 weeks of age (Guy, Cardiff, & Muller, 1992). Therefore, the MMTV-PyMT model is a highly reproducible and highly faithful model for the development of TNBC.
Animal Studies. All animal procedures were approved by the Institutional Animal Care and Use Committee at Southern University of Science and Technology. Twelve 8-wk-old female MMTV-PyMT mice were divided into six groups. The two mice in each group were littermates. Each group of mice was treated with crenolanib (20 mg/kg, dissolved in vehicle; Selleck) or vehicle [5% (vol/vol) glycerol formal; Sigma] intraperitoneally once daily for 35 d. Once palpable, tumor sizes were measured with a digital caliper every 5 d, and the volumes were calculated using the formula (length×width)/2. Data were reported as means±SE. At the end of crenolanib treatment, mice were killed, and tumors were harvested and weighted.
In vivo analysis also validated that PDGFRB was prominently expressed in tumor associated stromal cells, including spindle-shaped fibroblasts, but not in tumor tissues by using the polyoma middle T (PyMT) oncogene-driven breast cancer mouse model, which mimics all identifiable stages of human breast cancer progression (28) (data not shown). […] To further analyze the paracrine effects of breast cancer cells on fibroblast expansion, the inventors assessed the ligand secretion by breast cancer cells (data not shown). […] Tumor volumes in crenolanib-treated and untreated mice were measured every 5 d after dosing initiation. […] In addition, tumor weight per mouse at sacrifice (12 wk) was 55% lower in crenolanib-treated mice than in vehicle-treated mice (FIG. 1C).

[2] = test system: PDGFRβ; experiment: Induced PDGFRβ pathway signaling in human mammary fibroblasts (Western blot); format: cell-based
Procedure: SDS/PAGE and Western Blot Analysis. The labeling performance of probe 1 to various bait proteins was characterized by high-resolution SDS/PAGE using the PROTEAN II xi Cell electrophoresis instrument (gel size, 16×20 cm; Bio-Rad) and Coomassie brilliant blue staining. Equal amounts of protein were separated by SDS/PAGE and transferred to membranes. Membranes were blocked in 5% (wt/vol) BSA and then incubated with a primary antibody overnight at 4° C., followed by an incubation with an HRP-conjugated anti-rabbit or anti-mouse secondary antibody (Cell Signaling Technology). Proteins were visualized using a Western ECL Substrate Kit (Bio-Rad). The primary antibodies used in this study were streptavidin-HRP (Thermo Fisher), anti-4G10 (Merck Millipore), anti-His (Cell Signaling Technology), anti-EGFR (Cell Signaling Technology), anti-ERBB2 (Cell Signaling Technology), anti-PDGFRB (Cell Signaling Technology), anti-p-STAT3 (Cell Signaling Technology), anti-p-AKT (Cell Signaling Technology), anti-AKT (Cell Signaling Technology), anti-p-ERK 1/2 (Cell Signaling Technology), anti-ERK 1/2 (Cell Signaling Technology), and anti-β-actin (Beyotime).
In addition, the ability of the present invention to block PDGFR signaling in a conditioned media in vitro system was investigated. […]

[3] = target: PDGFRβ (Homo sapiens, UniProt P09619); conditions: cited from earlier work
Chain of PDGFRβ (Homo sapiens, UniProt P09619) (P09619 33-1106): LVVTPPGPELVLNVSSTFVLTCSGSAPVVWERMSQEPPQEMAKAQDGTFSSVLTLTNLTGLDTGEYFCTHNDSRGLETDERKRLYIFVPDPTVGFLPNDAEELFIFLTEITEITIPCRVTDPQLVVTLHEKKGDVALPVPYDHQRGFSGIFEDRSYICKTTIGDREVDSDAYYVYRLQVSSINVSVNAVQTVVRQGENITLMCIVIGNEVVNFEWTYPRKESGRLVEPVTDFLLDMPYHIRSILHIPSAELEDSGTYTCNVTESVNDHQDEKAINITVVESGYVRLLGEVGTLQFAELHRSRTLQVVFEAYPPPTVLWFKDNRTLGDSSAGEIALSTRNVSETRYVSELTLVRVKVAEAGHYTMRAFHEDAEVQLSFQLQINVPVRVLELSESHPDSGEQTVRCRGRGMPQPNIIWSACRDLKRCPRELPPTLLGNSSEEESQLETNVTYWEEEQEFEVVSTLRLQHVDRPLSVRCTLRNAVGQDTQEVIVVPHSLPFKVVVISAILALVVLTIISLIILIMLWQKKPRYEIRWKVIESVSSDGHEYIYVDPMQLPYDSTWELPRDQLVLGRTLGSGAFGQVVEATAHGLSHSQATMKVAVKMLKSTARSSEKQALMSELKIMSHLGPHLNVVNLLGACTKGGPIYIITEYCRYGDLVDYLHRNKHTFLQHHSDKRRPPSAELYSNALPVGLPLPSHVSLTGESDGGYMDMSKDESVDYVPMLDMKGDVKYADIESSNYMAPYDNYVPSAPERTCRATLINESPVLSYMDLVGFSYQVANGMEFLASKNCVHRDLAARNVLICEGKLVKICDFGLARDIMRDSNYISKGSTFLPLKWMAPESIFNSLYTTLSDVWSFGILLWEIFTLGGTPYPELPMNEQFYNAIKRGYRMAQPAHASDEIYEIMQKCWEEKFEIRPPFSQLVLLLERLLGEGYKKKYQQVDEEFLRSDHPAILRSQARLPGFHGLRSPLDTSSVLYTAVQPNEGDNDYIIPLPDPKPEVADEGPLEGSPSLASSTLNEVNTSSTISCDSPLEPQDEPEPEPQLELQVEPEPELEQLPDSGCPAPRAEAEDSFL

[4] = test system: other known RTKs (e.g., VEGFR or fibroblast growth factor receptor) or serine/threonine kinases (e.g. Abl, Raf); conditions: at concentrations that are used clinically; cited from earlier work
[5] = test system: inflammatory breast cancer cells; conditions: in vitro; cited from earlier work
[6] = target: PDGFRα (Homo sapiens, UniProt P16234); conditions: cited from earlier work
Chain of PDGFRα (P16234 24-1089): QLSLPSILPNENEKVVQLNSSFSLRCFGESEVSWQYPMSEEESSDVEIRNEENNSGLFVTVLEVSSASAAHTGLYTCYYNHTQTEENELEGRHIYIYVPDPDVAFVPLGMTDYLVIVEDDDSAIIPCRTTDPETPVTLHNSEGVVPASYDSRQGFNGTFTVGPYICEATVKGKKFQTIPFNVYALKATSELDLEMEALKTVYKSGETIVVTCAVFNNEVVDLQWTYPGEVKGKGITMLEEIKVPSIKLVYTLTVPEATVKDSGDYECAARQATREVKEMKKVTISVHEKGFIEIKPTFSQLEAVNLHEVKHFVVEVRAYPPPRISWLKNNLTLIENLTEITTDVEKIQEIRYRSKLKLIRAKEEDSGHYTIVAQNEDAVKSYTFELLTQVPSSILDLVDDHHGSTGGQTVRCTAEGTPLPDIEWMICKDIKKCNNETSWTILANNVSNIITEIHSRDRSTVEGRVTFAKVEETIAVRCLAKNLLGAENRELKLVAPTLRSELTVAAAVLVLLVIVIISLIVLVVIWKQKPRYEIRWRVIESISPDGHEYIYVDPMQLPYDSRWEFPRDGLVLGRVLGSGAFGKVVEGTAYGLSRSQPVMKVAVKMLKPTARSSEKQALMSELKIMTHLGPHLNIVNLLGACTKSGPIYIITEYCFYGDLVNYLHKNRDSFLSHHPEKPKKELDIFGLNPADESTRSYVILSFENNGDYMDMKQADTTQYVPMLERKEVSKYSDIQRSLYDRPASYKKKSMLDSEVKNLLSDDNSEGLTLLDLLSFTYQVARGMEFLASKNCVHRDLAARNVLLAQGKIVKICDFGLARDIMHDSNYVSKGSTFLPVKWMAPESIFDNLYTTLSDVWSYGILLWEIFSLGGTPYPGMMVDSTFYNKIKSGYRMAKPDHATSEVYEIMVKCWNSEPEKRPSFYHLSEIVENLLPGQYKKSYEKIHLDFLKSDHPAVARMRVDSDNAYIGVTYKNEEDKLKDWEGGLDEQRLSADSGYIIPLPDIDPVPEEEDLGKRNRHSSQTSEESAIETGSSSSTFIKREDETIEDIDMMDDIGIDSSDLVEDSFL

[7] = in vivo; cited from earlier work
[8] = treatment starting at 8 weeks of age, before palpable mammary tumors

Compound	tumor weight per mouse at sacrifice, lower than in vehicle-treated mice ([1]; 20 mg/kg intraperitoneally once daily for 35 d from 8 wk of age, at sacrifice (12 wk), FIG. 1C) [%]	tumor growth (tumor volumes by calipers) vs vehicle-treated mice ([1]; 20 mg/kg intraperitoneally once daily for 35 d from 8 wk of age)	tumor growth (tumor volumes by calipers) vs vehicle-treated mice ([1]; 20 mg/kg intraperitoneally once daily for 35 d from 8 wk of age, listed as the present invention)	number of tumors [1, 8]	tumor volume [1, 8]	tumor weight [1, 8]	downstream pathway signaling (phosphorylated AK and ERK 1/2) ([2]; human mammary fibroblasts pre-treated, conditioned media from MDA-MB-468 cells, FIG. 2)	increase in PDGFRβ signaling induced by conditioned media ([2]; human mammary fibroblasts pretreated with crenolanib, conditioned media from TNBC cell line MDA-MB468, FIG. 2 left half)	inhibition of PDGFRβ [3]	inhibition of other known RTKs or serine/threonine kinases [4]	growth of inflammatory breast cancer cells [5]	inhibition of PDGFRα [6]	oral bioavailability [7]
CC1(COc2ccc3c(c2)ncn3-c2ccc3cccc(N4CCC(N)CC4)c3n2)COC1 [crenolanib, 4-Piperidinamine, 1-[2-[5-[(3-methyl-3-oxetanyl)methoxy]-1H-benzimidazol-1-yl]-8-quinolinyl]]	55	grew significantly more slowly	significantly prevented tumor growth	reduced	reduced	reduced	inhibited	blocked this increased signaling	highly selective inhibitor	does not inhibit	inhibits the growth		
crenolanib besylate									ability to inhibit			ability to inhibit	orally bioavailable
